For 2 compounds, Activity results are on record in ChEMBL document CHEMBL6127067, “Discovery, Biosynthesis, and Characterization of Rodencin, a Two-Component Lanthipeptide, Harboring d-Amino Acids Introduced by the Unusual Dehydrogenase RodJA” (J Nat Prod, 2024).

Each structure is given as a SMILES string. The source made the active and inactive calls. The rule behind the calls is not given here.

Assay [1] has as its system Escherichia coli. Kind of assay: Antimicrobial activity against Escherichia coli LMG 8223 assessed as absence of visible growth measured after 20 hrs by broth dilution assay. Format: functional, organism-based.
The subject of assay [2] is Listeria monocytogenes. Briefly: Antimicrobial activity against Listeria monocytogenes LMG 10470 assessed as absence of visible growth in presence of Rod-beta measured after 20 hrs by broth dilution assay. Format: functional, organism-based.
For assay [3], the system named is Cell membrane. Briefly: Induction of inner membrane permeability in Micrococcus flavus NIZO B423 using DNA-binding stain propidium iodide in presence of Rod beta by membrane integrity assay.
Assay [4] relates to Salmonella enterica. Briefly: Antimicrobial activity against Salmonella enterica LMG 07233 assessed as absence of visible growth measured after 20 hrs by broth dilution assay. Format: functional, organism-based.
Assay [5] relates to Micrococcus flavus. Briefly: Antimicrobial activity against Micrococcus flavus NIZO B423 assessed as absence of visible growth measured after 20 hrs by broth dilution assay. Format: functional, organism-based.
The test system of assay [6] is Staphylococcus aureus. Kind of assay: Antimicrobial activity against Staphylococcus aureus LMG 8224 assessed as absence of visible growth measured after 20 hrs by broth dilution assay. Format: functional, organism-based.
Assay [7] has as its system Cell membrane. Kind of assay: Induction of outer membrane permeability in Escherichia coli using 1-N-Nphenylnaphthylamine fluorescent probe by microplate reader. Format: subcellular.
Assay [8] relates to Cell membrane. Briefly: Induction of outer membrane permeability in Escherichia coli using 1-N-Nphenylnaphthylamine fluorescent probe in presence of Rod beta by microplate reader. Format: subcellular.
Assay [9] has as its system Bacillus cereus. Kind of assay: Antimicrobial activity against Bacillus cereus ATCC14579 assessed as absence of visible growth in presence of Rod-beta measured after 20 hrs by broth dilution assay. Format: functional, organism-based.
Assay [10] deals with Enterococcus faecium. Kind of assay: Antimicrobial activity against Enterococcus faecium LMG 16003 assessed as absence of visible growth measured after 20 hrs by broth dilution assay. Format: functional, organism-based.
For assay [11], the system named is Listeria monocytogenes. Briefly: Antimicrobial activity against Listeria monocytogenes LMG 10470 assessed as absence of visible growth measured after 20 hrs by broth dilution assay. Format: functional, organism-based.
Assay [12] has as its system Staphylococcus aureus. Briefly: Antimicrobial activity against methicillin-resistant Staphylococcus aureus assessed as absence of visible growth in presence of Rod-beta measured after 20 hrs by broth dilution assay. Format: functional, organism-based.
For assay [13], the system named is Lactococcus lactis. Briefly: Antimicrobial activity against Lactococcus lactis NZ9000 assessed as absence of visible growth measured after 20 hrs by broth dilution assay. Format: functional, organism-based.
For assay [14], the system named is Bacillus subtilis. Briefly: Antimicrobial activity against Bacillus subtilis 168 assessed as absence of visible growth measured after 20 hrs by broth dilution assay. Format: functional, organism-based.
For assay [15], the system named is Enterococcus faecium. Kind of assay: Antimicrobial activity against Enterococcus faecium LMG 16003 assessed as absence of visible growth in presence of Rod-beta measured after 20 hrs by broth dilution assay. Format: functional, organism-based.
Assay [16] can be described thus: Binding affinity to externally added Lipid II (unknown origin) in Micrococcus flavus NIZO B423 broth assessed as decrease in antimicrobial activity against Micrococcus flavus by Spot-on-lawn assay.
In assay [17] the test system is Cell membrane. Briefly: Induction of inner membrane permeability in Micrococcus flavus NIZO B423 using DNA-binding stain propidium iodide by membrane integrity assay. Format: subcellular.
Assay [18] deals with Bacillus cereus. Briefly: Antimicrobial activity against Bacillus cereus ATCC14579 assessed as absence of visible growth measured after 20 hrs by broth dilution assay. Format: functional, organism-based.
The subject of assay [19] is Staphylococcus aureus. Kind of assay: Antimicrobial activity against Staphylococcus aureus LMG 15975 assessed as absence of visible growth measured after 20 hrs by broth dilution assay. Format: functional, organism-based.
Assay [20] deals with Staphylococcus aureus. Briefly: Antimicrobial activity against methicillin-resistant Staphylococcus aureus assessed as absence of visible growth in presence of Rod-alpha measured after 20 hrs by broth dilution assay. Format: functional, organism-based.
The subject of assay [21] is Cell membrane. Briefly: Induction of inner membrane permeability in Micrococcus flavus NIZO B423 using DNA-binding stain propidium iodide in presence of Rod alpha by membrane integrity assay.
For assay [22], the system named is Enterococcus faecium. Briefly: Antimicrobial activity against Enterococcus faecium LMG 16003 assessed as absence of visible growth in presence of Rod-alpha measured after 20 hrs by broth dilution assay. Format: functional, organism-based.
Assay [23] relates to Listeria monocytogenes. Briefly: Antimicrobial activity against Listeria monocytogenes LMG 10470 assessed as absence of visible growth in presence of Rod-alpha measured after 20 hrs by broth dilution assay. Format: functional, organism-based.
The test system of assay [24] is Cell membrane. Briefly: Induction of outer membrane permeability in Escherichia coli using 1-N-Nphenylnaphthylamine fluorescent probe in presence of Rod alpha by microplate reader. Format: subcellular.
The test system of assay [25] is Bacillus cereus. Briefly: Antimicrobial activity against Bacillus cereus ATCC14579 assessed as absence of visible growth in presence of Rod-alpha measured after 20 hrs by broth dilution assay. Format: functional, organism-based.

On to `C/C=C(\NC(=O)[C@H](CC(N)=O)NC(=O)/C(=C/C)NC(=O)[C@@H]1CCSC[C@@H](N)C(=O)N1)C(=O)N[C@@H](Cc1ccccc1)C(=O)N[C@H](C)C(=O)N[C@@H](CC(C)C)C(=O)N[C@@H]1CSC[C@H](C(=O)N[C@H]2CCSC[C@H]3NC(=O)[C@H](CCC(=O)O)NC(=O)[C@H](CCCCN)NC(=O)[C@@H](CSC[C@H](C(=O)O)NC(=O)[C@H](Cc4c[nH]c5ccccc45)NC(=O)[C@H](C)NC(=O)[C@H](CCSC)NC3=O)NC(=O)[C@H](C(C)C)NC2=O)NC(=O)[C@H](Cc2c[nH]c3ccccc23)NC(=O)CNC(=O)CNC(=O)[C@H](CCCCN)NC(=O)[C@H](CC(N)=O)NC(=O)CNC(=O)[C@H](Cc2c[nH]c3ccccc23)NC(=O)[C@H](Cc2ccc(O)cc2)NC(=O)[C@H](CC(=O)O)NC1=O`, for which the outcome in [1], in [4], in [5], in assay [6], in assay [7] and in assay [10] was inactive. The outcome in [11], in [13], in assay [14], in assay [17], in assay [18] and in [19] was inactive. The result in assay [2], in assay [3], in assay [8], in assay [9], in [12] and in [15] was Active. Besides, in assay [16], the outcome was Active.
In the case of `C/C=C(/NC(=O)[C@@H](N)Cc1c[nH]c2ccccc12)C(=O)N1CCC[C@H]1C(=O)N[C@@H](C)C(=O)N[C@@H](CC(C)C)C(=O)N[C@H](C)C(=O)N[C@H](C(=O)N[C@H](C(=O)N[C@H](CC)C(=O)NCC(=O)N[C@@H](Cc1ccc(O)cc1)C(=O)N[C@H](C(=O)N[C@@H]1CSC[C@H](C(=O)N2CCC[C@H]2C(=O)N[C@H]2CCSC[C@H](C(=O)N[C@H]3CCSC[C@H](C(=O)O)NC(=O)[C@H](C)NC(=O)[C@H](CCCNC(=N)N)NC3=O)NC(=O)[C@H](C)NC(=O)[C@H]([C@@H](C)O)NC2=O)NC(=O)[C@H]([C@@H](C)O)NC(=O)[C@H](CC(N)=O)NC(=O)[C@H](CO)NC1=O)[C@@H](C)CC)[C@@H](C)CC)C(C)C`, the outcome in assay [1], in assay [4], in assay [5], in assay [6], in [7] and in assay [10] was inactive. Further, the result in assay [11], in assay [13], in assay [14], in assay [17], in assay [18] and in [19] was inactive. Besides, the result in [20], in assay [21], in assay [22], in assay [23], in assay [24] and in assay [25] was Active.
